Key:
Assay in all cases: Cell proliferation assay (MTS)
HS746T = assay type: cell-based, human
Method: (§1) The sensitivity of a panel of human cancer cell lines to the effects of compounds was determined in a standard proliferation assay.
(§2) Cells were plated in 96 well plates at densities of 1000-6000 cells per well in RPMI media containing 10% FBS. After incubation at 37° C. for 16 hours, various concentrations of compound were added to the assay plates. After incubation for an additional 72 h, the viable cells were determined by the addition of MTS reagent (Promega #3582) to each well for 2 h. MTS is a tetrazolium salt that is bioreduced by metabolically active cells in the presence of an electron coupling reagent to formazan. The formazan product was then quantitated by absorbance at 490 nm, as an indicator of the relative number of live cells. In order to determine the GI50 (concentration at which growth of cells was inhibited by 50%) the relative number of cells present at the time of drug addition was determined by comparison with the MTS readout before the drug was added, and this value was subtracted from the 72 hr value of untreated cells as a measure of cell growth during the assay.

SNU668 = assay type: cell-based, human
Method: as §1
(§3) Cells were plated in 96 well plates at densities of 1000-6000 cells per well in RPMI media containing 10% FBS. After incubation at 37° C. for 16 hours, various concentrations of compound were added to the assay plates. After incubation for an additional 72 h, the viable cells were determined by the addition of MTS reagent (Promega #3582) to each well for 2 h. […] The formazan product was then quantitated by absorbance at 490 nm, as an indicator of the relative number of live cells. In order to determine the GI50 (concentration at which growth of cells was inhibited by 50%) the relative number of cells present at the time of drug addition was determined by comparison with the MTS readout before the drug was added, and this value was subtracted from the 72 hr value of untreated cells as a measure of cell growth during the assay.

J82 = assay type: cell-based, human
Method: as §1, §3

RT11284 = assay type: cell-based, human
Method: as §1, §2

NAMALWA = assay type: cell-based, human
Method: as §1, §3

RAMOS = assay type: cell-based, human
Method: as §1, §2

H1869 = assay type: cell-based, human
Method: as §1, §2

YAPC = assay type: cell-based, human
Method: (§4) The sensitivity of a panel of human cancer cell lines to the effects of compounds was determined in a standard proliferation assay. Cell lines were sourced through the AstraZeneca Cell Bank.
as §2

MKN74 = assay type: cell-based, human
Method: as §1, §2

TCCSUP = assay type: cell-based, human
Method: as §1, §2

ASPC1 = assay type: cell-based, human
Method: as §1, §2

SNU620 = assay type: cell-based, human
Method: as §4, §2

ARH77 = assay type: cell-based, human
Method: as §1, §2

HUH1 = system: HUH1
Method: as §1, §3

HCC15 = assay type: cell-based, human
Method: as §1, §2

LNCAPCLONEFGC = assay type: cell-based, human
Method: as §4, §2

RT4 = assay type: cell-based, human
Method: as §1, §3

MDAMB231 = assay type: cell-based, human
Method: as §1, §3

H460DNP53 = assay type: cell-based, human
Method: as §1, §2

SUM52PE = assay type: cell-based, human
Method: as §1, §2

SNU16 = assay type: cell-based, human
Method: as §1, §2

JJN3 = assay type: cell-based, human
Method: as §1, §2

HUH7 = assay type: cell-based, human
Method: as §1, §2

H226 = assay type: cell-based, human
Method: as §1, §2

AZ521 = assay type: cell-based, human
Method: as §1, §2

SNU1 = assay type: cell-based, human
Method: as §4, §2

KATOIII = assay type: cell-based, human
Method: as §1, §3

H522 = assay type: cell-based, human
Method: as §1, §3

H460 = assay type: cell-based, human
Method: as §1, §2

N87 = assay type: cell-based, human
Method: as §4, §3

JVM3 = assay type: cell-based, human
Method: as §1, §2

647V = assay type: cell-based, human
Method: as §1, §3

AGS = assay type: cell-based, human
Method: as §1, §2

CFPAC1 = assay type: cell-based, human
Method: as §4, §2

HRA19 = assay type: cell-based, human
Method: as §4, §2

SW620 = assay type: cell-based, human
Method: as §1, §3

SW403 = assay type: cell-based, human
Method: as §1, §2

HT1197 = assay type: cell-based, human
Method: as §1, §2

SW1990 = assay type: cell-based, human
Method: as §1, §2

HEPG2 = assay type: cell-based, human
Method: as §4, §2

HPAC = assay type: cell-based, human
Method: as §1, §2

H2291 = assay type: cell-based, human
Method: as §4, §2

MCF7MDR+ = assay type: cell-based, human
Method: as §4, §2

[1] = Homo sapiens, Stomach, PIK3CA WT
[2] = Homo sapiens, Bladder, PIK3CA MUT
[3] = Homo sapiens, Blood/lymph, PIK3CA WT
[4] = Homo sapiens, Pancreas, PIK3CA WT
[5] = Homo sapiens, Breast, PIK3CA WT

SMILES: CCn1nc(C2CCN(C(=O)CCO)CC2)nc1-c1cnc(N)c(-c2nnc(C(C)(C)C)o2)n1 [Example 3, 1-(4-(5-(5-amino-6-(5-tert-butyl-1,3,4-oxadiazol-2-yl)pyrazin-2-yl)-1-ethyl-1H-1,2,4-triazol-3-yl)piperidin-1-yl)-3-hydroxypropan-1-one]
- Category (HS746T): Resistant (resistant (GI50>1.0 μM))
- GI50 (HS746T; [1]): 5.98 µM
- Category (SNU668): Resistant (resistant (GI50>1.0 μM))
- GI50 (SNU668; [1]): 15.5 µM
- Category (J82): Resistant (resistant (GI50>1.0 μM))
- GI50 (J82; [2]): 13.4 µM
- Category (RT11284): Resistant (resistant (GI50>1.0 μM))
- GI50 (RT11284; Homo sapiens, RT112/84, Bladder, PIK3CA WT): 1.17 µM
- Category (NAMALWA): Resistant (resistant (GI50>1.0 μM))
- GI50 (NAMALWA; [3]): 17.6 µM
- Category (RAMOS): Resistant (resistant (GI50>1.0 μM))
- GI50 (RAMOS; [3]): 30 µM
- Category (H1869): Resistant (resistant (GI50>1.0 μM))
- GI50 (H1869; Homo sapiens, Lung, PIK3CA WT): 6.04 µM
- Category (YAPC): Resistant (resistant (GI50>1.0 μM))
- GI50 (YAPC; [4]): 30 µM
- Category (MKN74): Resistant (resistant (GI50>1.0 μM))
- GI50 (MKN74; Homo sapiens, MKN-74, Stomach, PIK3CA WT): 30 µM
- Category (TCCSUP): Sensitive (sensitive (GI50<=1.0 μM))
- GI50 (TCCSUP; Homo sapiens, TCC-SUP, Bladder, PIK3CA MUT): 0.724 µM
- Category (ASPC1): Resistant (resistant (GI50>1.0 μM))
- GI50 (ASPC1; [4]): 1.74 µM
- Category (SNU620): Resistant (resistant (GI50>1.0 μM))
- GI50 (SNU620; [1]): 3.14 µM
- Category (ARH77): Resistant (resistant (GI50>1.0 μM))
- GI50 (ARH77; Homo sapiens, ARH-77, Blood/lymph, PIK3CA WT): 30 µM
- Category (HUH1; HUH1): Resistant (resistant (GI50>1.0 μM))
- GI50 (HUH1; Homo sapiens, HuH-1): 22.3 µM
- Category (HCC15): Resistant (resistant (GI50>1.0 μM))
- GI50 (HCC15; Homo sapiens, Lung, PIK3CA WT): 30 µM
- Category (LNCAPCLONEFGC): Resistant (resistant (GI50>1.0 μM))
- GI50 (LNCAPCLONEFGC; Homo sapiens, LNCaP-Clone-FGC, Prostate, PIK3CA WT): 3.01 µM
- Category (RT4): Resistant (resistant (GI50>1.0 μM))
- GI50 (RT4; Homo sapiens, RT-4, Bladder, PIK3CA WT): 8.94 µM
- Category (MDAMB231): Resistant (resistant (GI50>1.0 μM))
- GI50 (MDAMB231; Homo sapiens, MDA-MB-231, Breast, PIK3CA WT): 23.6 µM
- Category (H460DNP53): Resistant (resistant (GI50>1.0 μM))
- GI50 (H460DNP53; Homo sapiens, Lung, PIK3CA WT): 18 µM
- Category (SUM52PE): Resistant (resistant (GI50>1.0 μM))
- GI50 (SUM52PE; [5]): 1.15 µM
- Category (SNU16): Resistant (resistant (GI50>1.0 μM))
- GI50 (SNU16; Homo sapiens, SNU-16, Stomach, PIK3CA WT): 16.8 µM
- Category (JJN3): Resistant (resistant (GI50>1.0 μM))
- GI50 (JJN3; Homo sapiens, JJN-3, Blood/lymph, PIK3CA WT): 30 µM
- Category (HUH7): Resistant (resistant (GI50>1.0 μM))
- GI50 (HUH7; Homo sapiens, Huh-7, Liver, PIK3CA WT): 16 µM
- Category (H226): Resistant (resistant (GI50>1.0 μM))
- GI50 (H226; Homo sapiens, NCI-H226, Lung, PIK3CA WT): 10.1 µM
- Category (AZ521): Resistant (resistant (GI50>1.0 μM))
- GI50 (AZ521; Homo sapiens, AZ-521, Duodenum, PIK3CA WT): 2.06 µM
- Category (SNU1): Resistant (resistant (GI50>1.0 μM))
- GI50 (SNU1; [1]): 15 µM
- Category (KATOIII): Resistant (resistant (GI50>1.0 μM))
- GI50 (KATOIII; Homo sapiens, KATO III, Stomach, PIK3CA WT): 9.15 µM
- Category (H522): Resistant (resistant (GI50>1.0 μM))
- GI50 (H522; Homo sapiens, NCI-H522, Lung, PIK3CA WT): 15.6 µM
- Category (H460): Resistant (resistant (GI50>1.0 μM))
- GI50 (H460; Homo sapiens, NCI-H460, Lung, PIK3CA MUT): 30 µM
- Category (N87): Resistant (resistant (GI50>1.0 μM))
- GI50 (N87; [1]): 1.3 µM
- Category (JVM3): Resistant (resistant (GI50>1.0 μM))
- GI50 (JVM3; Homo sapiens, JVM-3, Blood/lymph, PIK3CA WT): 30 µM
- Category (647V): Resistant (resistant (GI50>1.0 μM))
- GI50 (647V; Homo sapiens, Bladder, PIK3CA WT): 5.46 µM
- Category (AGS): Resistant (resistant (GI50>1.0 μM))
- GI50 (AGS; Homo sapiens, Stomach, PIK3CA MUT): 1.41 µM
- Category (CFPAC1): Resistant (resistant (GI50>1.0 μM))
- GI50 (CFPAC1; Homo sapiens, CFPAC-1, Pancreas, PIK3CA WT): 3.38 µM
- Category (HRA19): Sensitive (sensitive (GI50<=1.0 μM))
- GI50 (HRA19; Homo sapiens, Rectum, PIK3CA MUT): 0.393 µM
- Category (SW620): Resistant (resistant (GI50>1.0 μM))
- GI50 (SW620; Homo sapiens, SW-620, Colon, PIK3CA WT): 13.4 µM
- Category (SW403): Resistant (resistant (GI50>1.0 μM))
- GI50 (SW403; Homo sapiens, SW-403, Colon, PIK3CA MUT): 2.61 µM
- Category (HT1197): Resistant (resistant (GI50>1.0 μM))
- GI50 (HT1197; [2]): 2.8 µM
- Category (SW1990): Resistant (resistant (GI50>1.0 μM))
- GI50 (SW1990; [4]): 28.3 µM
- Category (HEPG2): Resistant (resistant (GI50>1.0 μM))
- GI50 (HEPG2; Homo sapiens, Liver, PIK3CA WT): 30 µM
- Category (HPAC): Resistant (resistant (GI50>1.0 μM))
- GI50 (HPAC; [4]): 2.16 µM
- Category (H2291): Resistant (resistant (GI50>1.0 μM))
- GI50 (H2291; Homo sapiens, NCI-H2291, Lung, PIK3CA WT): 3.29 µM
- Category (MCF7MDR+): Resistant (resistant (GI50>1.0 μM))
- GI50 (MCF7MDR+; [5]): 14.5 µM

Source: US9156831B2, “Chemical compounds” (ASTRAZENECA AB, priority 2013, dated 2015)
